Read-outs that look alike come from different tables or passages of the source. Peptide text beside a SMILES is read from it. * marks the point of attachment. Cbz = O=C(OCc1ccccc1)*
How the values were obtained:
ERα [1] = experiment: Immunoblot analysis of ERα degradation across ERα^WT and ERα^MUT BC cell lines; assay type: cell-based, human; details: 10 μmol/L MG-132 alone
MCF-10A cells = assay type: cell-based, human; details: TI = IC50 MCF-10A / IC50 MCF-7
LCC-2 cells = experiment: Cell viability assay on tamoxifen-resistant LCC-2 cells; assay type: cell-based; details: Homo sapiens, LCC2, read-out: LCC-2 IC50
human ERβ LBD = human ERβ LBD (Homo sapiens, UniProt Q92731); experiment: Competitive fluorescence polarization binding assay, ERβ; details: for RBA ERβ: IC50 estradiol/IC50 compound × 100, estradiol = 100%
MCF-7 cells = experiment: Cell viability assay; assay type: cell-based, human; details: Homo sapiens, MCF7, 72 h, read-out: MCF-7 IC50
ERα [2] = target: T1, ERα (Homo sapiens, UniProt P03372); experiment: Immunoblot analysis of ERα degradation in MCF-7 cells; assay type: cell-based; details: MCF-7 cells; for ERα degradation (immunoblot): 1 or 5 μmol/L
T1 sequence (P03372 1-595): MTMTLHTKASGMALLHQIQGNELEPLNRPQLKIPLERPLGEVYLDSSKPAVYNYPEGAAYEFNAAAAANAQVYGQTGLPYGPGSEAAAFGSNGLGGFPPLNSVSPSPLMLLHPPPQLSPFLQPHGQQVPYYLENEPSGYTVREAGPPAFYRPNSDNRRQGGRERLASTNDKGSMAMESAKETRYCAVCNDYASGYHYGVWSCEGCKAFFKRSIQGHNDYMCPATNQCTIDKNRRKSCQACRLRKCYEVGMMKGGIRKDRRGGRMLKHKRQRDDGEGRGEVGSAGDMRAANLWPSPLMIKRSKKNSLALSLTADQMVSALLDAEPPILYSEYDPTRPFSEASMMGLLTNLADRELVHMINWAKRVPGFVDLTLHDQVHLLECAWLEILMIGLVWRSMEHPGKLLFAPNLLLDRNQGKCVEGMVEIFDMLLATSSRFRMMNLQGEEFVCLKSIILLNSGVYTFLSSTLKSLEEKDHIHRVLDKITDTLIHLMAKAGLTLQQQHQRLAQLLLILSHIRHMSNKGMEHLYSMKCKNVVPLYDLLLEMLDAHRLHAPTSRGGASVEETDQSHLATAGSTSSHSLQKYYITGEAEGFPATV

ERα [3] = target: T1, ERα; experiment: cell-based; assay type: cell-based; details: for Agonist mode ERα Eff (%E2): control as 0%, 10 nmol/L E2 as 100%
T-47D cells = experiment: Cell viability assay; assay type: cell-based, human; details: Homo sapiens, T47D, 72 h, read-out: T-47D IC50
human ERα LBD = target: T2, human ERα LBD (Homo sapiens, UniProt P03372); experiment: Competitive fluorescence polarization binding assay, ERα; details: for RBA ERα: IC50 estradiol/IC50 compound × 100, estradiol = 100%; for α/β ratio: ratio of RBA ERα to RBA ERβ
T2 sequence (P03372 311-547 limits assumed): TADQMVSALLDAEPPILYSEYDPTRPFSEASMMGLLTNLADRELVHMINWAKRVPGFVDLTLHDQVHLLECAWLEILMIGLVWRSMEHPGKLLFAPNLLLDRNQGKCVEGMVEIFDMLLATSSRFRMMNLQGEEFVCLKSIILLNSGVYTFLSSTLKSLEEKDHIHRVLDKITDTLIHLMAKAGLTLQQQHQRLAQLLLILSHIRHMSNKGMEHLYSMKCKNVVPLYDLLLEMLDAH

T-47D^D538G cells = experiment: Cell viability assay; assay type: cell-based, human; details: Homo sapiens, 72 h, read-out: T-47D^D538G IC50
ERβ = ERβ (Homo sapiens, UniProt Q92731); experiment: ER transcriptional activity; assay type: cell-based; details: for Agonist mode ERβ Eff (%E2): control as 0%, 10 nmol/L E2 as 100%; for Antagonist mode ERβ Eff (%E2): with 10 nmol/L 17β-estradiol
T-47D^Y537S cells = experiment: Cell viability assay; assay type: cell-based, human; details: Homo sapiens, 72 h, read-out: T-47D^Y537S IC50

human ERβ LBD, sequence (Q92731 264-498 limits assumed): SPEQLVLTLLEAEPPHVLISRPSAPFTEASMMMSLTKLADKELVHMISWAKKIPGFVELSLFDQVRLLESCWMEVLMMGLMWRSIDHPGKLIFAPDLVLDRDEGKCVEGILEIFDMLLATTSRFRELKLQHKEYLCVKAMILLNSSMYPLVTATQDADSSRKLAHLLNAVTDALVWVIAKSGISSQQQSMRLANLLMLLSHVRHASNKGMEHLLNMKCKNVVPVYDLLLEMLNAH
ERβ, sequence (Q92731 whole entry): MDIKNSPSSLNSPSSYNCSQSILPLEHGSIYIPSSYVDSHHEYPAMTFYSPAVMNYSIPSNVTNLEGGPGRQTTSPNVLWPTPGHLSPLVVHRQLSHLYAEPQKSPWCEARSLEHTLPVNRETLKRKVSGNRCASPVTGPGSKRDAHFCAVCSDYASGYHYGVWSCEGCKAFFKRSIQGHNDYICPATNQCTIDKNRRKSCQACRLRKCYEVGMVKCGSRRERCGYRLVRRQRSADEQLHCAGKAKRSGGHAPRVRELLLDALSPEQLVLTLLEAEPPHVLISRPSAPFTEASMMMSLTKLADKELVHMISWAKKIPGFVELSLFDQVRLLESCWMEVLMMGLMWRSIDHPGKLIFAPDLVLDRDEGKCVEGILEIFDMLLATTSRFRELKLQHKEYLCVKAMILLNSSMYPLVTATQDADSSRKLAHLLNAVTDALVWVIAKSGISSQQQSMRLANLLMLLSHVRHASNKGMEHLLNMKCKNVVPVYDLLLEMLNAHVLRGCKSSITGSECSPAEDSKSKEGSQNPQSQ

Structure (SMILES)	TI (therapeutic index) (MCF-10A cells)	IC50 (LCC-2 cells)	RBA ERβ (human ERβ LBD)	IC50 (MCF-7 cells)	ERα degradation (immunoblot) at 1 μmol/L (ERα [2])	ERα degradation (immunoblot) (ERα [2])	Agonist mode ERα Eff (%E2) (ERα [3])	Antagonist mode ERα Eff (%E2) (ERα [3]; with 10 nmol/L 17β-estradiol)	IC50 (T-47D cells)	RBA ERα (human ERα LBD)	α/β ratio (human ERα LBD)	IC50 (T-47D^D538G cells)	Agonist mode ERβ Eff (%E2) (ERβ)	Antagonist mode ERβ Eff (%E2) (ERβ)	IC50 (T-47D^Y537S cells)	further results
CC(C)C[C@@H](C=O)NC(=O)[C@H](CC(C)C)NC(=O)[C@H](CC(C)C)NC(=O)OCc1ccccc1 [MG-132, reference compound] (Cbz-Leu-Leu-Leu-aldehyde)	–	–	–	–	–	–	–	–	–	–	–	–	–	–	–	Effect on ERα degradation, alone (ERα [1]): no effect on ERα degradation
CCN(c1ccc(O)cc1)S(=O)(=O)C1CC2OC1C(c1ccc(O)cc1)=C2c1ccc(NC(=O)C=C(C)C)cc1 (stereo not drawn) [Compound 29i, N-(4-(5-(N-Ethyl-N-(4-hydroxyphenyl)sulfamoyl)-3-(4-hydroxyphenyl)-7-oxabicyclo[2.2.1]hept-2-en-2-yl)phenyl)-3-methylbut-2-enamide]	122.82	4070 ± 130 nM	5.12 ± 0.39%	71 ± 27 nM	efficient ability to degrade ERα	effective in inducing ERα degradation	15 ± 2 %E2	62 ± 5 %E2	3490 ± 60 nM	29.85 ± 1.09%	5.83	4250 ± 190 nM	34 ± 2 %E2	78 ± 2 %E2	1890 ± 170 nM	Ki (human ERβ LBD): 1.3 nM; IC50 (ERα [3]): 66 nM; Ki (human ERα LBD): 0.09 nM; IC50 (ERβ): 1020 nM
COc1ccc(N(CC(F)(F)F)S(=O)(=O)C2CC3OC2C(c2ccc(O)cc2)=C3c2ccc(NC(=O)C=C(C)C)cc2)cc1 (stereo not drawn) [Compound 29f, N-(4-(3-(4-Hydroxyphenyl)-5-(N-(4-methoxyphenyl)-N-(2,2,2-trifluoroethyl)sulfamoyl)-7-oxabicyclo[2.2.1]hept-2-en-2-yl)phenyl)-3-methylbut-2-enamide]	54.89	15100 ± 1370 nM	1.64 ± 0.45%	94 ± 1 nM	efficient ability to degrade ERα	effective in inducing ERα degradation	65 ± 5 %E2	35 ± 2 %E2	8580 ± 360 nM	14.48 ± 0.65%	8.83	8530 ± 470 nM	9 ± 2 %E2	13 ± 1 %E2	> 31000 nM	Ki (human ERβ LBD; read-out: Ki ERβ): 4.07 nM; EC50 (ERα [3]; read-out: Agonist mode ERα EC50, HEK-293T luciferase): 4910 nM; IC50 (ERα [3]; read-out: Antagonist mode ERα IC50, with 10 nmol/L 17β-estradiol): 210 nM; Ki (human ERα LBD; read-out: Ki ERα): 0.19 nM

— PMC10692362 (Acta Pharmaceutica Sinica. B, 2023)
